Test results reported in patent publication US20080076129A1, “Method of Detecting an Increased Susceptibility to Breast Cancer” (priority 2000, published 2008).
Substitutions are numbered along the chain they refer to.

Legend:
COMT = target: T1, COMT (Homo sapiens, UniProt P21964); assay: Assay of COMT activity, purified recombinant His-COMT, methylation of catechol estrogens; format: biochemical; conditions: for Km: formation of the named product from its catechol estrogen, recombinant His-COMT, 200 μM SAM, 10 min at 37° C.; for kcat: formation of the named product, in min-1 (unit assumed); for formation of product by COMT: methylation of 4-OHE2 and 4-OHE1; for pattern of rates of methylation: substrate 2-100 μM; for Hill Coefficient: sigmoidal fit
T1 construct: made in house; host or cells: Escherichia coli DH5αF′Iq
T1 sequence (P21964 51-271): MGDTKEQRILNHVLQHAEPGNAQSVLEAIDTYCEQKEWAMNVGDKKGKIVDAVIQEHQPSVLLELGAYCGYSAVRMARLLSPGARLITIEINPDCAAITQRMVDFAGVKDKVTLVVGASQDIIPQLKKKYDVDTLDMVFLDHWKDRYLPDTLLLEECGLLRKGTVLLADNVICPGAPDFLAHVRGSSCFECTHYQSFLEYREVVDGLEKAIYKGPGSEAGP
Protocol: Assay of COMT Activity. Purified recombinant His-COMT (300 pmol) was reconstituted 0.5 ml of 100 mM KPO4, pH 7.4, containing 5 mM MgCl2, 10 mM β-mercaptoethanol, and 200 μM SAM. Reactions were initiated by adding varying concentrations of each individual catechol estrogen (2, 3, 6, 9, 12, 15, 20, 40, 60, 80, and 100 μM). Blanks contained all compounds except SAM. Reactions proceeded for 10 min at 37° C. with gentle shaking and then were terminated by addition of 2 ml CH2Cl2. To determine COMT activity in breast cancer cells, ZR-75 and MCF-7 cells were harvested at confluency and homogenized in 100 mM KPO4, pH 7.4, 5 mM MgCl2, 10 mM β-mercaptoethanol. Following ultracentrifugation of the cell homogenate (110,000 g, 30 min, 4° C.), the supernatant cytosol was divided into aliquots for ICELISA, protein determination (BCA assay; Pierce, Rockford, Ill.), and COMT assay. The latter was carried out in the presence of 200 μM SAM and 100 μM catechol estrogen for 20 min at 37° C. and then terminated by addition of CH2Cl2. The concentration of endogenous catechol and methoxy estrogens was below the limit of detection by gas chromatography/mass spectrometry.
Extraction and Gas Chromatography/Mass Spectrometry Analysis of Catechol Estrogens. A deuterated internal standard (100 μl of 8 mg/liter E2-d4 in methanol) was added and all estrogens extracted into the CH2Cl2 by vortex mixing for 30 s. 1.5 ml of the CH2Cl2 fraction was evaporated to dryness under air and volatile TMS derivatives prepared by heating the residue with 100 μl of 50% NO-bis(trimethylsilyl)trifluoroacetamide/1% trimethyl chlorosilane in acetonitrile at 56° C. for 30 min. The TMS derivatives of the estrogen metabolites were separated by gas chromatography (H-P 5890, Hewlett-Packard, Wilmington, Del.) on a 5% phenyl methyl silicone stationary phase fused silica capillary column (30 m×0.2 mm×0.5 μm film, HP5; Hewlett-Packard). Helium carrier gas was used at a flow of 1 ml/min. The injector was operated at 250° C., with 2 μl injected in the splitless mode, with a purge (60 ml/min helium) time of 0.6 min. The oven temperature was held at 180° C. for 0.5 min, then raised at 6° C./min to 250° C. where it was held for 17 min, then raised to 300° C. at 8° C./min to give a total run time of 35.42 min. This program permitted adequate separation of a wide range of estrogen metabolites. Retention times (in min) for the TMS derivatives were E1 20.13, E2 and E2-d4 21.89, 4-MeOE1 23.52, 2-MeO-3-MeOE1 (underivatized) 23.75, 2-OH-3-MeOE1 24.87, 2-MeOE1 25.2, 4-MeOE2 25.78, 2-OHE1 and 2-MeO-3-MeOE2 26.19, 2-OH-3-MeOE2 26.9, 2-MeOE2 27.18, 4-OHE1 27.27, 6α-OHE2 27.29, 2-OHE2 27.44, 4-OHE2 28.06, E3 28.38. The EI mass spectrometer (H-P 5970) was operated in the selected ion monitoring mode from 18 to 30 min. Ions monitored were TMS-E1 342, 257, 343; TMS2-E2-d4 420, 421, 287; TMS2-E2 416, 417, 285; TMS-4-MeOE1, TMS-2-OH-3-MeOE1, TMS-2-MeOE1 and TMS-3-MeO-4-OHE1 372, 373, 342; 2-MeO-3-MeOE1 314, 315, 229; TMS2-4-MeOE2, TMS2-2-OH-3-MeOE2, TMS2-2-MeOE2 and TMS2-3-MeO-4-OHE2 446, 447, 315; TMS2-2-OHE1 430, 431, 432; TMS-2-MeO-3-MeOE2 388, 389, 257; TMS2-4-OHE1 430, 431, 345; TMS2-6α-OHE2 414, 283, 309; TMS3-2-OHE2 and TMS3-4-OHE2 504, 505, 373; TMS3-E3 504, 505, 311 (FIG. 7). The instrument was calibrated by simultaneous preparation of an 11-point calibration over the range 0-22 nmol/tube of each compound. Sensitivity was determined to be between 0.02 and 0.04 nmol/tube (400-800 fmol on column) for the various compounds. […] Absolute extraction efficiency for E2, 2-OH-E2 and 4-OH-E2 at 3.5 nmol/tube was 119, 96, and 107% assessed by comparison to injections of spiked solvent samples onto the gas chromatograph. Internal standard added prior to extraction compensated for deviation from 100% recovery for all investigated compounds.
Statistical Analysis. […]

DNA = conditions: cited from earlier work
Syrian hamster = conditions: in vivo; cited from earlier work
renal DNA = conditions: in vivo; cited from earlier work
CYP1B1 = assay: Assay of CYP1B1 E2 hydroxylation activity; format: biochemical, human; conditions: for 2-OH-Estradiol kcat: E2 2-hydroxylation; for 4-OH-Estradiol kcat: E2 4-hydroxylation; for 16a-OH-Esrradiol kcat: E2 16α-hydroxylation
Protocol: Assay of CYP1B1 E2 Hydroxylation Activity. Purified CYP1B1 (200 pmol) was reconstituted with a 2-fold molar amount of recombinant rat NADPH-P450 reductase (400 pmol), purified as previously described, and 60 μg of L-α-dilauroyl-sn-glycero-3-phosphocholine in the presence of sodium cholate (0.005%, w/v) in 0.4 ml of 100 mM potassium phosphate buffer, pH 7.4, containing varying concentrations of E2 (2, 3, 6, 9, 12, 15, 20, 40, 60, 80, and 100 μM) and 1 mM ascorbate. An NADPH-generating system consisting of 5 mM glucose 6-phosphate and 0.5 U of glucose-6-phosphate dehydrogenase/ml was added and reactions initiated by adding NADP+ to a final concentration of 0.5 mM. Reactions proceeded for 10 min at 37° C. with gentle shaking and then were terminated by addition of 2 ml CH2Cl2.
Extraction and Gas Chromatography/Mass Spectrometry Analysis of E2 and Metabolites. A deuterated internal standard (100 μl of 8 mg/liter E2-2, 4, 16, 16-d4 in methanol; CDN Isotopes, Pointe-Claire, Quebec) was added and all steroids extracted into CH2Cl2 by vortex mixing for 30 s. 1.5 ml of the CH2Cl2 fraction was evaporated to dryness under air and volatile TMS derivatives prepared by heating the residue with 100 μl of 50% NO-bis(trimethylsilyl)trifluoroacetamide/1% trimethyl chlorosilane in acetonitrile at 56° C. for 30 min. The TMS derivatives of E2 and its metabolites were separated by gas chromatography (H-P 5890, Hewlett-Packard, Wilmington, Del.) on a 5% phenyl methyl silicone stationary phase fused silica capillary column (30 m×0.2 mm×0.5 μm film, HP5; Hewlett-Packard). Helium carrier gas was used at a flow of 1 ml/min. The injector was operated at 250° C., with 2 μl injected in the splitless mode, with a purge (60 ml/min helium) time of 0.6 min. The oven temperature was held at 189° C. for 0.5 min, then raised at 6° C./min to 250° C. where it was held for 17 min, then raised to 300° C. at 8° C./min to give a total run time of 35.42 min. […] The EI mass spectrometer (H-P 5970) was operated in the selected ion monitoring mode from 18 to 34 min. Ions monitored were TMS2-E2-d4 420, 288, 330; TMS2-E2 416, 285, 326; TMS3-2-OH-E2 504, 373; TMS3-4-OH-E2 504, 373, 325; TMS3-16α-OH-E2 345, 311, 504. The instrument was calibrated by simultaneous preparation of an 11-point calibration over the range […]/tube of each compound. […] Internal standard added prior to extraction compensated for deviation from 100% recovery.
Statistical Analysis. Kinetic parameters (Km and kcat) were determined by nonlinear regression analysis using the computer program GraphPad PRISM (San Diego, Calif.).

## COc1cc2c(cc1O)[C@H]1CC[C@]3(C)[C@@H](O)CC[C@H]3[C@@H]1CC2 [2-OH-3-MeOE2]
COMT
  Km: 51 ± 5 µM
  kcat: 1.5 ± 0.1

## COc1cc2c(cc1O)[C@H]1CC[C@]3(C)C(=O)CC[C@H]3[C@@H]1CC2 [2-OH-3-MeOE1]
COMT
  Km: 73 ± 16 µM
  kcat: 2.8 ± 0.4

## COc1ccc2c(c1O)CC[C@@H]1[C@@H]2CC[C@]2(C)[C@@H](O)CC[C@@H]12 [3-MeO-4-OHE2]
COMT
  formation of product by COMT: not observed

## C[C@]12CC[C@@H]3c4ccc(O)c(O)c4CC[C@H]3[C@@H]1CC[C@@H]2O [4-OHE2]
DNA
  DNA single-strand breaks: induced DNA single-strand breaks
COMT
  pattern of rates of methylation: sigmoid curve pattern
Syrian hamster
  induction of renal cancer: induced renal cancer
Renal DNA
  levels of the oxidized base 8-hydroxy-deoxyguanosine: significantly increased

## C[C@]12CC[C@@H]3c4cc(O)c(O)cc4CC[C@H]3[C@@H]1CCC2=O [2-OHE1]
COMT
  pattern of rates of methylation: typical hyperbolic patterns

## C[C@]12CC[C@@H]3c4cc(O)c(O)cc4CC[C@H]3[C@@H]1CC[C@@H]2O [2-OHE2]
DNA
  DNA single-strand breaks: negligible effect
COMT
  pattern of rates of methylation: typical hyperbolic patterns
Renal DNA
  levels of the oxidized base 8-hydroxy-deoxyguanosine: did not cause oxidative DNA damage

## COc1c(O)ccc2c1CC[C@@H]1[C@@H]2CC[C@]2(C)[C@@H](O)CC[C@@H]12 [4-MeOE2]
COMT
  Km: 24 ± 3 µM
  kcat: 3.4 ± 0.2
  Hill Coefficient: 1.6 ± 0.2

## C[C@]12CC[C@@H]3c4ccc(O)c(O)c4CC[C@H]3[C@@H]1CCC2=O [4-OHE1]
COMT
  pattern of rates of methylation: sigmoid curve pattern
Syrian hamster
  induction of renal cancer: induced renal cancer
Renal DNA
  levels of the oxidized base 8-hydroxy-deoxyguanosine: significantly increased

## COc1c(O)ccc2c1CC[C@@H]1[C@@H]2CC[C@]2(C)C(=O)CC[C@@H]12 [4-MeOE1]
COMT
  Km: 53 ± 6 µM
  kcat: 6.7 ± 0.4
  Hill Coefficient: 2.0 ± 0.4

## COc1ccc2c(c1O)CC[C@@H]1[C@@H]2CC[C@]2(C)C(=O)CC[C@@H]12 [3-MeO-4-OHE1]
COMT
  formation of product by COMT: not observed

## COc1cc2c(cc1O)CC[C@@H]1[C@@H]2CC[C@]2(C)[C@@H](O)CC[C@@H]12 [2-MeOE2]
COMT
  Km: 108 ± 9 µM
  kcat: 6.8 ± 0.4

## COc1cc2c(cc1O)CC[C@@H]1[C@@H]2CC[C@]2(C)C(=O)CC[C@@H]12 [2-MeOE1]
COMT
  Km: 74 ± 8 µM
  kcat: 3.3 ± 0.2

B1: Variant 4: recombinant CYP1B1 with 48Arg, 119Ala, 432Val, 453Ser (protein, UniProt Q16678 1-543, looked up, variant N453S)
Cytochrome P450 1B1: MGTSLSPNDPWPLNPLSIQQTTLLLLLSVLATVHVGQRLLRQRRRQLRSAPPGPFAWPLIGNAAAVGQAAHLSFARLARRYGDVFQIRLGSCPIVVLNGERAIHQALVQQGSAFADRPAFASFRVVSGGRSMAFGHYSEHWKVQRRAAHSMMRNFFTRQPRSRQVLEGHVLSEARELVALLVRGSADGAFLDPRPLTVVAVANVMSAVCFGCRYSHDDPEFRELLSHNEEFGRTVGAGSLVDVMPWLQYFPNPVRTVFREFEQLNRNFSNFILDKFLRHCESLRPGAAPRDMMDAFILSAEKKAAGDSHGGGARLDLENVPATITDIFGASQDTLSTALQWLLLLFTRYPDVQTRVQAELDQVVGRDRLPCMGDQPNLPYVLAFLYEAMRFSSFVPVTIPHATTANTSVLGYHIPKDTVVFVNQWSVNHDPLKWPNPENFDPARFLDKDGLISKDLTSRVMIFSVGKRRCIGEELSKMQLFLFISILAHQCDFRANPNEPAKMNFSYGLTIKPKSFKVNVTLRESMELLDSAVQNLQAKETCQ
CYP1B1
  2-OH-Estradiol kcat: 0.0467 ± 0.0033 s⁻¹
  4-OH-Estradiol kcat: 0.075 ± 0.005 s⁻¹
  16a-OH-Esrradiol kcat: 0.0065 ± 0.00033 s⁻¹

B2: Variant 1: recombinant CYP1B1 with 48Gly, 119Ala, 432Val, 453Asn (protein, UniProt Q16678 1-543, looked up, variant R48G)
Cytochrome P450 1B1: B1 Cytochrome P450 1B1 with R48G, S453N
CYP1B1
  2-OH-Estradiol kcat: 0.0533 ± 0.0033 s⁻¹
  4-OH-Estradiol kcat: 0.1 ± 0.0033 s⁻¹
  16a-OH-Esrradiol kcat: 0.00933 ± 0.00067 s⁻¹

B3: Variant 2: recombinant CYP1B1 with 48Arg, 119Ser, 432Val, 453Asn (protein, UniProt Q16678 1-543, looked up, variant A119S)
Cytochrome P450 1B1: B1 Cytochrome P450 1B1 with A119S, S453N
CYP1B1
  2-OH-Estradiol kcat: 0.0383 ± 0.0017 s⁻¹
  4-OH-Estradiol kcat: 0.0633 ± 0.0017 s⁻¹
  16a-OH-Esrradiol kcat: 0.00567 ± 0.00033 s⁻¹
